Patent US20210292347A1, “DIHETEROCYCLIC TRIAZINONE NUCLEOSIDE ANALOGS AND THEIR USE FOR MEDICATION” (priority 2020, published 2021)

Tested on: mice sarcoma S180
Assay: Growth inhibition of S180 sarcoma in mice
Type: in vivo, Kunming healthy mice
Details: for in-vivo anti-tumor efficacy, statistical significance (in words): S180 sarcoma in mice, doses and routes of Table 3
[1] = Mus musculus, S-180, mice, ip, 200 mg/kg, read-out: Inhibition rate (%) S180 sarcoma
[2] = Mus musculus, S-180, mice, ip, read-out: Inhibition rate (%) S180 sarcoma
[3] = Mus musculus, S-180, mice, iv, read-out: Inhibition rate (%) S180 sarcoma

Row | Compound | in-vivo anti-tumor efficacy, statistical significance (in words) | inhibition in vivo at 200 mg/kg [1] [%] | further results
1 | Cn1nc(C#N)c2nnn(C3OC(CO)C(O)C3O)c(=O)c21 (stereo not drawn) [Example 26, 3-(3,4-dihydroxy-5-(hydroxymethyl)tetrahydrofuran-2-yl)-5-methyl-4-oxo-4,5-dihydro-3H-pyrazolo[4,3-d][1,2,3]triazine-7-carbonitrile] | statistically significant | – | inhibition in vivo at 70 mg/kg (Mus musculus, S-180, mice, ip, 70 mg/kg, read-out: Inhibition rate (%) S180 sarcoma): < 40%
2 | CCOC(=O)c1nn(C(N)=S)c2c(=O)n(C3OC(CO)C(O)C3O)nnc12 (stereo not drawn) [Example 73, ethyl 5-carbamothioyl-3-(3,4-dihydroxy-5-(hydroxymethyl)tetrahydrofuran-2-yl)-4-oxo-4,5-dihydro-3H-pyrazolo[4,3-d][1,2,3]triazine-7-carboxylate] | statistically significant | < 40 | –
3 | CC(=O)O[C@H]1C(=O)[C@@]2(C)[C@H]([C@H](OC(=O)c3ccccc3)[C@]3(O)C[C@H](OC(=O)[C@H](O)[C@@H](NC(=O)c4ccccc4)c4ccccc4)C(C)=C1C3(C)C)[C@]1(OC(C)=O)CO[C@@H]1C[C@@H]2O [Taxol, Paclitaxel, reference compound] | – | – | inhibition in vivo at 20 mg/kg (Mus musculus, S-180, mice, ip, 20 mg/kg, read-out: Inhibition rate (%) S180 sarcoma): < 40%
4 | NC(=O)n1nc(N)c2nnn(C3OC(CO)C(O)C3O)c(=O)c21 (stereo not drawn) [Example 56, 7-amino-3-(3,4-dihydroxy-5-(hydroxymethyl)tetrahydrofuran-2-yl)-4-oxo-3H-pyrazolo[4,3-d][1,2,3]triazine-5(4H)-carboxamide] | statistically significant | – | inhibition in vivo at 100 mg/kg [2]: < 40%
5 | CN(C)CCC(=O)Nc1nn(C)c2c(=O)n(C3OC(CO)C(O)C3O)nnc12 (stereo not drawn) [Example 25, N-(3-(3,4-dihydroxy-5-(hydroxymethyl)tetrahydrofuran-2-yl)-5-methyl-4-oxo-4,5-dihydro-3H-pyrazolo[4,3-d][1,2,3]triazin-7-yl)-3-(dimethylamino) propanamide] | statistically significant | – | Inhibition rate (%) S180 sarcoma (mice, ip, 200 mg/kg): ++ (++ represent of Inhibition rate % <40)
6 | CCOP(=O)(OCC)C(Nc1nn(C)c2c(=O)n(C3CSC(CO)O3)nnc12)C(=O)O (stereo not drawn) [Example 90, 2-(diethoxyphosphoryl)-2-((3-(2-(hydroxymethyl)-1,3-oxathiolan-5-yl)-5-methyl-4-oxo-4,5-dihydro-3H-pyrazolo[4,3-d][1,2,3]triazin-7-yl)amino)acetic acid] | – | – | inhibition in vivo at 30 mg/kg [3]: < 20%
7 | N=C(N)n1nc([N+](=O)[O-])c2nnn(C3OC(CO)C(O)C3O)c(=O)c21 (stereo not drawn) [Example 72, 3-(3,4-dihydroxy-5-(hydroxymethyl)tetrahydrofuran-2-yl)-7-nitro-4-oxo-3H-pyrazolo[4,3-d][1,2,3]triazine-5(4H)-carboximidamide] | statistically significant | – | inhibition in vivo at 25 mg/kg (Mus musculus, S-180, mice, iv, 25 mg/kg, read-out: Inhibition rate (%) S180 sarcoma): < 40%
8 | CCCc1nn(O)c2c(=O)n(C3CSC(CO)O3)nnc12 (stereo not drawn) [Example 88, 5-hydroxy-3-(2-(hydroxymethyl)-1,3-oxathiolan-5-yl)-7-propyl-3H-pyrazolo[4,3-d][1,2,3]triazin-4(5H)-one] | statistically significant | – | inhibition in vivo at 400 mg/kg [2]: < 40%
9 | COc1ccc(C(=O)Nc2nn(O)c3c(=O)n(C4OC(CO)C(O)C4O)nnc23)cc1 (stereo not drawn) [Example 20, N-(3-(3,4-dihydroxy-5-(hydroxymethyl)tetrahydrofuran-2-yl)-5-hydroxy-4-oxo-4,5-dihydro-3H-pyrazolo[4,3-d][1,2,3]triazin-7-yl)-4-methoxybenzamide] | – | < 20 | –
10 | CCCc1nn(C(=N)N)c2c(=O)n(C3CSC(CO)O3)nnc12 (stereo not drawn) [Example 100, 3-(2-(hydroxymethyl)-1,3-oxathiolan-5-yl)-4-oxo-7-propyl-3H-pyrazolo[4,3-d][1,2,3]triazine-5(4H)-carboximidamide] | statistically significant | – | inhibition in vivo at 100 mg/kg [2]: < 40%
11 | CCCc1nn(C(=N)N)c2c(=O)n(C3CCC(CO)O3)nnc12 (stereo not drawn) [Example 85, 3-(5-(hydroxymethyl)tetrahydrofuran-2-yl)-4-oxo-7-propyl-3H-pyrazolo[4,3-d][1,2,3]triazine-5(4H)-carboximidamide] | – | – | inhibition in vivo at 400 mg/kg [2]: < 20%
12 | CCOC(=O)c1nn(C)c2c(=O)n(C3OC(CO)C(O)C3O)nnc12 (stereo not drawn) [Example 22, ethyl 3-(3,4-dihydroxy-5-(hydroxymethyl)tetrahydrofuran-2-yl)-5-methyl-4-oxo-4,5-dihydro-3H-pyrazolo[4,3-d][1,2,3]triazine-7-carboxylate] | statistically significant | < 40 | –
13 | CCCc1nn(C(N)=O)c2c(=O)n(C3CSC(CO)O3)nnc12 (stereo not drawn) [Example 97, 3-(2-(hydroxymethyl)-1,3-oxathiolan-5-yl)-4-oxo-7-propyl-3H-pyrazolo[4,3-d][1,2,3]triazine-5(4H)-carboxamide] | statistically significant | – | inhibition in vivo at 100 mg/kg [2]: < 40%
14 | N#Cc1nn(C(=N)N)c2c(=O)n(C3OC(CO)C(O)C3O)nnc12 (stereo not drawn) [Example 70, 7-cyano-3-(3,4-dihydroxy-5-(hydroxymethyl)tetrahydrofuran-2-yl)-4-oxo-3H-pyrazolo[4,3-d][1,2,3]triazine-5(4H)-carboximidamide] | statistically significant | – | inhibition in vivo at 100 mg/kg [2]: < 40%
15 | CCCc1nn(CO)c2c(=O)n(C3CSC(CO)O3)nnc12 (stereo not drawn) [Example 94, 5-(hydroxymethyl)-3-(2-(hydroxymethyl)-1,3-oxathiolan-5-yl)-7-propyl-3H-pyrazolo[4,3-d][1,2,3]triazin-4(5H)-one] | statistically significant | – | inhibition in vivo at 30 mg/kg [3]: < 40%
16 | CCCc1nn(C(N)=S)c2c(=O)n(C3OC(CO)C(O)C3O)nnc12 (stereo not drawn) [Example 74, 3-(3,4-dihydroxy-5-(hydroxymethyl)tetrahydrofuran-2-yl)-4-oxo-7-propyl-3H-pyrazolo[4,3-d][1,2,3]triazine-5(4H)-carbothioamide] | statistically significant | < 40 | –
17 | CCCc1nn(O)c2c(=O)n(C3OC(COC(C(=O)O)P(NC(C)C)OCC#N)C(O)C3O)nnc12 (stereo not drawn) [Example 117, 2-((cyanomethoxy)(isopropylamino)phosphino)-2-((3,4-dihydroxy-5-(5-hydroxy-4-oxo-7-propyl-4,5-dihydro-3H-pyrazolo [4,3-d][1,2,3]triazin-3-yl)tetrahydrofuran-2-yl)methoxy)acetic acid] | statistically significant | – | inhibition in vivo at 15 mg/kg (Mus musculus, S-180, mice, iv, 15 mg/kg, read-out: Inhibition rate (%) S180 sarcoma): < 40%
18 | CCCc1nn(C)c2c(=O)n(C3CCC(CO)O3)nnc12 (stereo not drawn) [Example 80, 3-(5-(hydroxymethyl)tetrahydrofuran-2-yl)-5-methyl-7-propyl-3H-pyrazolo[4,3-d][1,2,3]triazin-4(5H)-one] | – | < 20 | –
19 | Nc1nn(CO)c2c(=O)n(C3OC(CO)C(O)C3O)nnc12 (stereo not drawn) [Example 32, 7-amino-3-(3,4-dihydroxy-5-(hydroxymethyl)tetrahydrofuran-2-yl)-5-(hydroxymethyl)-3H-pyrazolo [4,3-d][1,2,3]triazin-4(5H)-one] | statistically significant | – | inhibition in vivo at 30 mg/kg [3]: < 40%
20 | CCCc1nn(O)c2c(=O)n(C3CCC(CO)O3)nnc12 (stereo not drawn) [Example 79, 5-hydroxy-3-(5-(hydroxymethyl)tetrahydrofuran-2-yl)-7-propyl-3H-pyrazolo[4,3-d][1,2,3]triazin-4(5H)-one] | – | – | inhibition in vivo at 300 mg/kg (Mus musculus, S-180, mice, ip, 300 mg/kg, read-out: Inhibition rate (%) S180 sarcoma): < 20%
21 | CCCc1nn(C(=N)N)c2c(=O)n(C3OC(COP(=O)(O)OP(=O)(O)OP(=O)(O)O)C(O)C3O)nnc12 (stereo not drawn) [Example 140, (5-(5-carbamimidoyl-4-oxo-7-propyl-4,5-dihydro-3H-pyrazolo[4,3-d][1,2,3]triazin-3-yl)-3,4-dihydroxytetrahydrofuran-2-yl)methyl tetrahydrogen triphosphate] | – | < 20 | –
22 | O=c1c2nnn(CO)c2nnn1C1OC(CO)C(O)C1O (stereo not drawn) [Example 152, 6-(3,4-dihydroxy-5-(hydroxymethyl)tetrahydrofuran-2-yl)-3-(hydroxymethyl)-3H-[1,2,3]triazolo[4,5-d][1,2,3]triazin-7(6H)-one] | – | – | inhibition in vivo at 400 mg/kg [2]: < 20%
23 | CCCn1nnc2c(=O)n(C3OC(CO)C(O)C3O)nnc21 (stereo not drawn) [Example 151, 6-(3,4-dihydroxy-5-(hydroxymethyl)tetrahydrofuran-2-yl)-3-propyl-3H-[1,2,3]triazolo[4,5-d][1,2,3]triazin-7(6H)-one] | – | < 20 | –
24 | O=c1c2c(nnn1C1OC(CO)C(O)C1O)nnn2CO (stereo not drawn) [Example 148, 6-(3,4-dihydroxy-5-(hydroxymethyl)tetrahydrofuran-2-yl)-1-(hydroxymethyl)-1H-[1,2,3]triazolo[4,5-d][1,2,3]triazin-7(6H)-one] | – | < 20 | –
25 | CCCc1nn(C)c2c(=O)n(C3OC(CO)C(O)C3O)nnc12 (stereo not drawn) [Example 23, 3-(3,4-dihydroxy-5-(hydroxymethyl)tetrahydrofuran-2-yl)-5-methyl-7-propyl-3H-pyrazolo [4,3-d][1,2,3]triazin-4(5H)-one] | statistically significant | – | inhibition in vivo at 100 mg/kg [2]: < 40%
26 | 2-(3,4-dihydroxy-5-(hydroxymethyl)tetrahydrofuran-2-yl)-7-hydroxy-5-propyl-2,7-dihydro-1H-pyrazolo[4,3-d][1,2,3]triazin-1-one [Example 14] | statistically significant | – | Inhibition rate (%) S180 sarcoma (mice, iv, 12.5 mg/kg): ++ (++ represent of Inhibition rate % <40)
